Results as given in patent US11236069B2, “KIF18A inhibitors” (AMGEN INC., priority 2018, dated 2022).
pIC50: −log10 of the molar value.

target: Recombinant human KIF18A (1-467 His-tagged) protein (Homo sapiens (Human), UniProt Q8NI77); assay: KIF18A Enzyme Assay: microtubule-stimulated ATPase activity (ADP-Glo); conditions: read-out: KIF18A ATPase IC50; 30 nM KIF18A, 30 μg/mL pig microtubules, ATP at Km 75 μM, ADP-Glo luminescence
Sequence (Q8NI77 1-467): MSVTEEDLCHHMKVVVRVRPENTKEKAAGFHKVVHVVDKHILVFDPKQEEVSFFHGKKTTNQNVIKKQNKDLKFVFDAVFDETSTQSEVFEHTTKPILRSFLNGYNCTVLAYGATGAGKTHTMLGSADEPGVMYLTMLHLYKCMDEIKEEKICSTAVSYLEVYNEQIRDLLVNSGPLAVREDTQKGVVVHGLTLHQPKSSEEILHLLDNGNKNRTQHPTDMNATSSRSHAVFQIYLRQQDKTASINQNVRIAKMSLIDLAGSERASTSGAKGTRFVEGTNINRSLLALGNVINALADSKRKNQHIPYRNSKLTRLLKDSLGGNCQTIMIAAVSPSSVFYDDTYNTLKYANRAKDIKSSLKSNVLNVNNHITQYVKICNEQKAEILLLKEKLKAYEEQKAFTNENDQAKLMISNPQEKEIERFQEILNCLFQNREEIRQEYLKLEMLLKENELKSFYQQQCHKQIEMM
Sequence (P02550 whole entry partner): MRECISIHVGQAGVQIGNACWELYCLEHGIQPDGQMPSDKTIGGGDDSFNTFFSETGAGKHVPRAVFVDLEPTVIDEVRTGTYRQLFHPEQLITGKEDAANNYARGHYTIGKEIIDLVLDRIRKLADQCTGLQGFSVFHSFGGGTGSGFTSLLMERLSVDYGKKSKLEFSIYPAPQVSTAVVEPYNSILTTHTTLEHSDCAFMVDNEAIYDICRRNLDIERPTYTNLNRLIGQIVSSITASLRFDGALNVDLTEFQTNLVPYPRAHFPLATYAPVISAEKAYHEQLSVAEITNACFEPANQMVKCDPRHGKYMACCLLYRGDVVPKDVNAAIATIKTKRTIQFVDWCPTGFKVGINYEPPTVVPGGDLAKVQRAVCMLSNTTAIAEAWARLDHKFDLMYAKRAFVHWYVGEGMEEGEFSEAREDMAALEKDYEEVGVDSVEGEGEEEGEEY
Sequence (P02554 whole entry partner): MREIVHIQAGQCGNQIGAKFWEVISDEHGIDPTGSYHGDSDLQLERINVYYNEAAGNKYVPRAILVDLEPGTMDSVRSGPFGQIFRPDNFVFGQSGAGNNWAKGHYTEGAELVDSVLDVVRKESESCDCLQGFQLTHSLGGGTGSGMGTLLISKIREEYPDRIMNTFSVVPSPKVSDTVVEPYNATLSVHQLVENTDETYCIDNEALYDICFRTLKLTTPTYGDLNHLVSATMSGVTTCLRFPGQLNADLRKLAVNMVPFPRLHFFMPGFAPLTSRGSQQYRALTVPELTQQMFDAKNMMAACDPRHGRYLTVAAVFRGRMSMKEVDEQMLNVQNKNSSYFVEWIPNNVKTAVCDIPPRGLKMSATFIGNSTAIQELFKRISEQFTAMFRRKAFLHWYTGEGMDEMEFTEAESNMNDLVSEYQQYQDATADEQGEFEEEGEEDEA
Text: KIF18A Enzyme Assay: Microtubule-stimulated ATPase activity assay is used to measure KIF18A enzyme activity after treatment with compound. Compounds were 2-fold serially diluted in DMSO (Sigma Inc) over 22-point concentration range. […] The assay measures ADP formed from the ATPase reaction.

SMILES	pIC50
Cc1cc(NC(=O)c2ccc(S(=O)(=O)NCC(C)(C)O)cc2N2CCC3(CC2)CC3)nc(N2CCC(F)(F)CC2)n1 [Example 17-8, N-(2-(4,4-Difluoropiperidin-1-yl)-6-methylpyrimidin-4-yl)-4-(N-(2-hydroxy-2-methylpropyl)sulfamoyl)-2-(6-azaspiro[2.5]octan-6-yl)benzamide]	6.54
Cc1cc(NC(=O)c2ccc(NS(=O)(=O)CCO)cc2N2CCC3(CC2)CC3)nc(N2CC3(CC3)C2)n1 [Example 11-17, 4-((2-Hydroxyethyl)sulfonamido)-N-(6-methyl-2-(5-azaspiro[2.3]hexan-5-yl)pyrimidin-4-yl)-2-(6-azaspiro[2.5]octan-6-yl)benzamide]	5.96
Cc1cc(NC(=O)c2ccc(NS(=O)(=O)CCO)cc2N2CCC3(CC2)CC3)nc(N2CC(OC(F)F)C2)n1 [Example 11-10, N-(2-(3-(Difluoromethoxy)azetidin-1-yl)-6-methylpyrimidin-4-yl)-4-((2-hydroxyethyl)sulfonamido)-2-(6-azaspiro[2.5]octan-6-yl)benzamide]	6.72
Cc1cc(NC(=O)c2ccc(NS(=O)(=O)CCO)cc2N2CCC3(CC2)CC3)nc(N2CCC[C@H](C#N)C2)n1 [Example 11-35, (S)-N-(2-(3-Cyanopiperidin-1-yl)-6-methylpyrimidin-4-yl)-4-((2-hydroxyethyl)sulfonamido)-2-(6-azaspiro[2.5]octan-6-yl)benzamide]	7.37
Cc1cc(NC(=O)c2ccc(NS(=O)(=O)CCO)cc2N2CCC3(CC2)CC3)nc(N2CCC[C@@](C)(F)C2)n1 [Example 11-55, (R)-N-(2-(3-Fluoro-3-methylpiperidin-1-yl)-6-methylpyrimidin-4-yl)-4-((2-hydroxyethyl)sulfonamido)-2-(6-azaspiro[2.5]octan-6-yl)benzamide]	7.39
Cc1cc(NC(=O)c2ccc(NS(=O)(=O)CCO)cc2N2CCC3(CC2)CC3)nc(N2CCC2)n1 [Example 11-19, N-(2-(Azetidin-1-yl)-6-methylpyrimidin-4-yl)-4-((2-hydroxyethyl)sulfonamido)-2-(6-azaspiro[2.5]octan-6-yl)benzamide]	6.69
CCc1cc(NC(=O)c2ccc(NS(=O)(=O)CCO)cc2N2CCC3(CC2)CC3)nc(N2CCC(F)(F)CC2)n1 [Example 6-38, N-(2-(4,4-Difluoropiperidin-1-yl)-6-ethylpyrimidin-4-yl)-4-((2-hydroxyethyl)sulfonamido)-2-(6-azaspiro[2.5]octan-6-yl)benzamide]	7.22
Cc1cc(NC(=O)c2ccc(NS(=O)(=O)CCO)cc2N2CCC3(CC2)CC3)nc(N2CCC23COC3)n1 [Example 11-9, 4-((2-Hydroxyethyl)sulfonamido)-N-(6-methyl-2-(6-oxa-1-azaspiro[3.3]heptan-1-yl)pyrimidin-4-yl)-2-(6-azaspiro[2.5]octan-6-yl)benzamide]	6.89
Cc1cc(NC(=O)c2ccc(NS(=O)(=O)CCO)cc2N2CCC3(CC2)CC3)cc(N2CCO[C@H](C)C2)n1 [Example 11-66]	6.83
Cc1cc(NC(=O)c2ccc(NS(=O)(=O)CCO)cc2N2CCC3(CC2)CC3)nc(N2CC(O)C2)n1 [Example 11-20, N-(2-(3-Hydroxyazetidin-1-yl)-6-methylpyrimidin-4-yl)-4-((2-hydroxyethyl)sulfonamido)-2-(6-azaspiro[2.5]octan-6-yl)benzamide]	7.32
Cc1cc(NC(=O)c2ccc(NS(=O)(=O)[C@@H](C)CO)cc2N2CCC3(CC2)CC3)nc(N2CC(F)(F)C2)n1 [Example 11-77, (S)-N-(2-(3,3-Difluoroazetidin-1-yl)-6-methylpyrimidin-4-yl)-4-((2-hydroxy-1-methylethyl)sulfonamido)-2-(6-azaspiro[2.5]octan-6-yl)benzamide]	7.47
Cc1cc(NC(=O)c2ccc(NS(=O)(=O)C3CCC3)cc2N2CCC3(CC2)CC3)nc(N2CC(F)(F)C2)n1 [Example 6-13, 4-(Cyclobutanesulfonamido)-N-(2-(3,3-difluoroazetidin-1-yl)-6-methylpyrimidin-4-yl)-2-(6-azaspiro[2.5]octan-6-yl)benzamide]	7.28
Cc1cc(NC(=O)c2ccc(NS(=O)(=O)CCO)cc2N2CCC3(CC2)CC3)nc(C2CC2)n1 [Example 11-3, N-(2-Cyclopropyl-6-methylpyrimidin-4-yl)-4-((2-hydroxyethyl)sulfonamido)-2-(6-azaspiro[2.5]octan-6-yl)benzamide]	7.31
Cc1cc(NC(=O)c2ccc(NS(=O)(=O)C3(CO)CC3)cc2N2CCC3(CC2)CC3)nc(N2CC(F)(F)C2)n1 [Example 11-68, N-(2-(3,3-Difluoroazetidin-1-yl)-6-methylpyrimidin-4-yl)-4-((1-(hydroxymethyl)cyclopropane)-1-sulfonamido)-2-(6-azaspiro[2.5]octan-6-yl)benzamide]	7.28
Cc1cc(NC(=O)c2ccc(NS(=O)(=O)C3CCOC3)cc2N2CCC3(CC2)CC3)nc(N2CCC(F)(F)CC2)n1 (stereo in doubt) [Example 11-73, (R)-N-(2-(4,4-Difluoropiperidin-1-yl)-6-methylpyrimidin-4-yl)-2-(6-azaspiro[2.5]octan-6-yl)-4-((tetrahydrofuran)-3 sulfonamido)benzamide]	7.10
O=C(Nc1cc(C2CC2)nc(N2CCC(F)(F)CC2)n1)c1ccc(NS(=O)(=O)CCO)cc1N1CCC2(CC1)CC2 [Example 6-39, N-(6-Cyclopropyl-2-(4,4-difluoropiperidin-1-yl)pyrimidin-4-yl)-4-((2-hydroxyethyl)sulfonamido)-2-(6-azaspiro[2.5]octan-6-yl)benzamide]	6.65
Cc1cc(NC(=O)c2ccc(NS(=O)(=O)CCO)cc2N2CCC3(CC2)CC3)nc(N2CCOC3(CC3)C2)n1 [Example 11-47, 4-((2-Hydroxyethyl)sulfonamido)-N-(6-methyl-2-(4-oxa-7-azaspiro[2.5]octan-7-yl)pyrimidin-4-yl)-2-(6-azaspiro[2.5]octan-6-yl)benzamide]	7.02
CC1(NS(=O)(=O)c2ccc(C(=O)Nc3ccnc(C(C)(C)O)n3)c(N3CCC4(CC3)CC4)c2)COC1 [Example 2, N-(2-(2-Hydroxypropan-2-yl)pyrimidin-4-yl)-4-(N-(3-methyloxetan-3-yl)sulfamoyl)-2-(6-azaspiro[2.5]octan-6-yl)benzamide]	6.84
